Source: patent US11214803B2, “Modulators of YAP1 expression” (Ionis Pharmaceuticals, Inc., priority 2019, dated 2022)
Strand notation (5' to 3'): a small letter for the sugar, then the base; units joined by * are phosphorothioate-linked, units joined directly phosphodiester-linked; [ ] holds rarer units or linkages, { } end groups; capitals alone tell only the bases. k = constrained ethyl (cEt); [5mC] = 5-methylcytosine; d = 2'-deoxy (DNA)

Tested on: Yap1 mRNA
Assay: Dose-dependent inhibition of human Yap1 in A-431 cells (Example 7, 10,000 cells per well, RTS36584)
Assay type: cell-based
Conditions: free uptake
Procedure: Modified oligonucleotides described in the studies above were tested at various doses in A-431 cells. Cultured A-431 cells at a density of 10,000 cells per well were treated using free uptake with modified oligonucleotides diluted to concentrations described in the tables below. After approximately 48 hours, Yap1 mRNA levels were measured as previously described using the Human Yap1 primer-probe set RTS36584. Yap1 mRNA levels were normalized to total RNA content, as measured by RIBOGREEN®. Results are presented in the tables below as percent control of the amount of Yap1 mRNA relative to untreated control cells (% UTC). IC50s were calculated using a linear regression on a log/linear plot of the data in excel.

[1] = 15.6 nM, A-431 cells, 10,000 cells per well, approximately 48 hours
[2] = 62.5 nM, A-431 cells, 10,000 cells per well, approximately 48 hours
[3] = 4000.00 nM, A-431 cells, 10,000 cells per well, approximately 48 hours
[4] = A-431 cells, approximately 48 hours, linear regression on log/linear plot
[5] = Table 60, 15.6 nM, A-431 cells 10,000 cells per well, 48 hours
[6] = Table 60, 62.5 nM, A-431 cells 10,000 cells per well, 48 hours
[7] = Table 60, 4000.00 nM, A-431 cells 10,000 cells per well, 48 hours
[8] = Table 60, A-431 cells 10,000 cells per well
[9] = Table 58, 15.6 nM, A-431 cells 10,000 cells per well, 48 hours
[10] = Table 58, 62.5 nM, A-431 cells 10,000 cells per well, 48 hours
[11] = Table 58, 4000.00 nM, A-431 cells 10,000 cells per well, 48 hours
[12] = Table 58, A-431 cells 10,000 cells per well
[13] = Table 57, 15.6 nM, A-431 cells 10,000 cells per well, 48 hours
[14] = Table 57, 62.5 nM, A-431 cells 10,000 cells per well, 48 hours
[15] = Table 57, 4000.00 nM, A-431 cells 10,000 cells per well, 48 hours
[16] = Table 57, A-431 cells 10,000 cells per well

Substance: 958485 (kA*kG*kA*dG*dG*dT*d[5mC]*dA*dG*d[5mC]*dA*dA*dT*kA*k[5mC]*kA; antisense) [compound 958485]
- Yap1 mRNA, % UTC [1]: 68 % UTC
- Yap1 mRNA, % UTC [2]: 38 % UTC
- Yap1 mRNA, % UTC [3]: 8 % UTC
- IC50 [4]: 0.04 µM

Substance: 958570 (kT*kG*kT*dA*dA*dT*dT*d[5mC]*dA*dT*dA*dT*dA*k[5mC]*k[5mC]*k[5mC]; antisense) [compound 958570]
- Yap1 mRNA, % UTC [1]: 93 % UTC
- Yap1 mRNA, % UTC [2]: 60 % UTC
- Yap1 mRNA, % UTC [3]: 17 % UTC
- IC50 [4]: 0.1 µM

Substance: 958585 (k[5mC]*kT*k[5mC]*dT*dA*dT*d[5mC]*dA*dA*dG*dG*dT*d[5mC]*k[5mC]*k[5mC]*k[5mC]; antisense) [compound 958585]
- Yap1 mRNA, % UTC [1]: 95 % UTC
- Yap1 mRNA, % UTC [2]: 71 % UTC
- Yap1 mRNA, % UTC [3]: 17 % UTC
- IC50 [4]: 0.2 µM

Substance: 958558 (kT*kT*k[5mC]*dA*d[5mC]*dA*dA*d[5mC]*d[5mC]*dA*dA*d[5mC]*dT*kA*kT*kT; antisense) [compound 958558]
- Yap1 mRNA, % UTC [5]: 84 % UTC
- Yap1 mRNA, % UTC [6]: 83 % UTC
- Yap1 mRNA, % UTC [7]: 35 % UTC
- IC50 [8]: 0.5 µM

Substance: 958567 (kT*k[5mC]*kA*dA*d[5mC]*d[5mC]*dT*dA*dT*dG*dA*dA*d[5mC]*kT*kA*kT; antisense) [compound 958567]
- Yap1 mRNA, % UTC [9]: 99 % UTC
- Yap1 mRNA, % UTC [10]: 80 % UTC
- Yap1 mRNA, % UTC [11]: 16 % UTC
- IC50 [12]: 0.2 µM

Substance: 958578 (k[5mC]*kT*kT*dA*dA*dT*d[5mC]*dT*dG*dT*dG*dG*d[5mC]*kT*kA*k[5mC]; antisense) [compound 958578]
- Yap1 mRNA, % UTC [5]: 78 % UTC
- Yap1 mRNA, % UTC [6]: 52 % UTC
- Yap1 mRNA, % UTC [7]: 10 % UTC
- IC50 [8]: 0.1 µM

Substance: 958615 (kT*kG*kG*dT*d[5mC]*dT*dT*dG*dT*dT*d[5mC]*dT*dT*kA*kT*kG; antisense) [compound 958615]
- Yap1 mRNA, % UTC [1]: 91 % UTC
- Yap1 mRNA, % UTC [2]: 60 % UTC
- Yap1 mRNA, % UTC [3]: 18 % UTC
- IC50 [4]: 0.1 µM

Substance: 958551 (k[5mC]*kT*k[5mC]*d[5mC]*dT*dG*dT*dA*dG*dA*d[5mC]*dA*d[5mC]*kA*kT*kA; antisense) [compound 958551]
- Yap1 mRNA, % UTC [13]: 95 % UTC
- Yap1 mRNA, % UTC [14]: 73 % UTC
- Yap1 mRNA, % UTC [15]: 14 % UTC
- IC50 [16]: 0.2 µM

Substance: 958537 (k[5mC]*kA*kG*dG*dG*dT*d[5mC]*dA*dA*dT*dT*dT*dT*k[5mC]*kA*kG; antisense) [compound 958537]
- Yap1 mRNA, % UTC [9]: 100 % UTC
- Yap1 mRNA, % UTC [10]: 56 % UTC
- Yap1 mRNA, % UTC [11]: 11 % UTC
- IC50 [12]: 0.1 µM

Substance: 958546 (k[5mC]*kA*kT*dA*d[5mC]*dT*d[5mC]*dT*dA*dG*dT*dT*dA*k[5mC]*kA*kT; antisense) [compound 958546]
- Yap1 mRNA, % UTC [13]: 91 % UTC
- Yap1 mRNA, % UTC [14]: 72 % UTC
- Yap1 mRNA, % UTC [15]: 22 % UTC
- IC50 [16]: 0.2 µM

Substance: 958799 (kA*kT*kT*dA*d[5mC]*dT*d[5mC]*dA*dA*dT*d[5mC]*dA*dT*kG*kG*kT; antisense) [compound 958799]
- Yap1 mRNA, % UTC (Table 61, 15.6 nM, A-431 cells 10,000 cells per well, 48 hours): 88 % UTC
- Yap1 mRNA, % UTC (Table 61, 62.5 nM, A-431 cells 10,000 cells per well, 48 hours): 53 % UTC
- Yap1 mRNA, % UTC (Table 61, 4000.00 nM, A-431 cells 10,000 cells per well, 48 hours): 10 % UTC
- IC50 (Table 61, A-431 cells 10,000 cells per well): 0.1 µM

Substance: 958486 (kT*kT*kA*dG*dA*dG*d[5mC]*d[5mC]*dA*dA*d[5mC]*dT*dG*kT*kG*kA; antisense) [compound 958486]
- Yap1 mRNA, % UTC [13]: 87 % UTC
- Yap1 mRNA, % UTC [14]: 73 % UTC
- Yap1 mRNA, % UTC [15]: 22 % UTC
- IC50 [16]: 0.2 µM

Substance: 958577 (kT*k[5mC]*kT*dG*dT*dG*dG*d[5mC]*dT*dA*d[5mC]*dT*dG*kG*k[5mC]*kA; antisense) [compound 958577]
- Yap1 mRNA, % UTC [9]: 81 % UTC
- Yap1 mRNA, % UTC [10]: 51 % UTC
- Yap1 mRNA, % UTC [11]: 11 % UTC
- IC50 [12]: 0.1 µM

Substance: 958518 (k[5mC]*k[5mC]*kA*d[5mC]*dA*dG*dT*dA*dA*dT*dA*dG*d[5mC]*kT*k[5mC]*kT; antisense) [compound 958518]
- Yap1 mRNA, % UTC (Table 59, 15.6 nM, A-431 cells 10,000 cells per well, 48 hours): 95 % UTC
- Yap1 mRNA, % UTC (Table 59, 62.5 nM, A-431 cells 10,000 cells per well, 48 hours): 55 % UTC
- Yap1 mRNA, % UTC (Table 59, 4000.00 nM, A-431 cells 10,000 cells per well, 48 hours): 4 % UTC
- IC50 (Table 59, A-431 cells 10,000 cells per well): 0.1 µM
